Measurements published in patent US12187758B2 (ROME Therapeutics, Inc., priority 2022, dated 2025).

Key:
Type in all cases: cell-based
[1] = Mitochondria toxicity assay with PC3 cells, in-cell ELISA COX-1; conditions: 5 days treatment
How it was run: (§1)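 This in-cell ELISA was run on fixed, permeabilized PC3 cells after 5-day exposure to titrated compound, with cytotoxicity measured on a duplicate plate. Results are reported as categories A (<1.0 μM) to E (>100.0 μM).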

PC3 cells = assay: Mitochondria toxicity assay with PC3 cells, cytotoxicity (Cell Titer Glo); conditions: Homo sapiens, PC-3, 120 h, 5 days treatment
How it was run: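 PC3 cells in F-12K with 10% FBS exposed to a compound dose titration for 5 days at 37° C, 5% CO2. Viability by Cell Titer Glo luminescence after 30 min at room temperature; values binned A (<1.0 μM) to E (>100.0 μM).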

[2] = tested on: SDH-A (succinate dehydrogenase-A); assay: Mitochondria toxicity assay with PC3 cells, in-cell ELISA SDH-A; conditions: 5 days treatment
How it was run: as §1

[3] = tested on: phosphorylated TANK-binding kinase 1 (pTBK1); assay: UVB-induced pTBK1 in HaCaT cells; conditions: Homo sapiens, light or radiation study, pTBK1 response curves, 72 hours compound treatment, UVB
Procedure: pTBK1 is an important signaling molecule in regulating inflammatory responses. HaCaT cells were plated in 6-well plates at a density of ˜100 k/well in HaCaT media (DMEM, optimized 1× (Addex Bio)+ 1% pen strep (Gibco)^+ 5% heat inactivated fetal bovine serum (Gibco)). The cells were then cultured at 37° C. overnight. The next day, the cells were treated with the test compounds. Each test compound was diluted and added to media aliquots to provide desired concentrations. To add the test compound+media mixture, an equivalent amount of media from each well was aspirated and then replenished with the media dosed with the test compound. The cells were then cultured for an additional 72 hours with compound treatment prior to UVB exposure.
The media was then aspirated from the wells, with the remaining cells at least 80% confluent in each well. One mL of PBS was then added to each well, and the plate was then placed under a UVB lamp. A UVB sensor was positioned near the plate to register the plate's exposure. The cells were exposed to the UVB light until they reached 0.1 mJ/cm2. Then the plate was covered and transferred to a sterile hood for processing.
The PBS was aspirated out of the wells, and the wells were replenished with 3 mL fresh culture media. The cells were then cultured for an additional 24 hours, and samples were processed 24 hours post-UVB exposure. To process the samples, the media was aspirated, the plate placed on ice, and the cells washed with cold PBS, which was then aspirated off. Another 1 mL of cold PBS was added to each well. The cells were then scraped in the cold PBS solution and transferred to conical tubes on ice. The cells were then spun at ≥1000 RCF at 4° C. for 5 minutes. The cells were then resuspended in 1 mL of cold PBS and transferred to a microcentrifuge tube. The cells were spun at ≥1000 RCF at 4° C. for another 5 minutes, and the PBS was aspirated off. The cell pellet was prepared for lysis.
A RIPA lysis buffer (#BP-115, Boston BioProducts) was added to a Halt protease and […] inhibitor cocktail (#78440, ThermoFisher), and the mixture was cooled on ice. About 30 μL of the lysis buffer mix was added to the cells. The samples were briefly vortexed and then incubated on ice for at least 15 minutes. The cells were then spun≥1000 RCF at 4° C. for 5 minutes and the supernatant was transferred to a clean tube. The protein concentration of the cell lysate was measured using Pierce™ Rapid Gold BCA Protein Assay Kit #AF3225 (ThermoFisher). ELISA analysis was run on select samples using one of the following kits: • a. FastScan™ Phospho-TBK1/NAK (Ser172) ELISA Kit #46948 (Cell Signaling Technologies) • b. FastScan™ Total TBK1/NAK ELISA Kit #15816 (Cell Signaling Technologies) • c. FastScan™ Phospho-STING (Ser366) ELISA Kit #82083 (Cell Signaling Technologies) • d. FastScan™ Phospho-IRF-3 (Ser396) ELISA Kit #50386 (Cell Signaling Technologies) • e. FastScan™ Total IRF-3 ELISA Kit #29771 (Cell Signaling Technologies) • f. Phospho-NAK/TBK1 (S172) ELISA Kit (ab279952) (Abcam) • g. Phospho-IRF3 (S386) ELISA Kit (ab279833) (Abcam) Part II—Results
In the table “A” represents values≤0.50 μM; “B” represents values from >0.50 μM to ≤2.0 μM; “C” represents values from >2.0 μM to ≤5.0 μM; “D” represents values from >5.0 μM to ≤10 μM; and “E” represents values>10 μM.

THP1-Dual KO-TREX1 cells = assay: THP1 TREX1 KO inhibition assay (type 1 interferon response); conditions: Homo sapiens, 144 h, type 1 interferon (QUANTI-LUC), 1 μM 5-aza-2′-deoxycytidine, six days
How it was run: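 THP1-Dual KO-TREX1 cells were treated with a dose titration of compound, alone or with 1 μM 5-aza-2′-deoxycytidine, for six days at 37 °C. Type 1 interferon was read as secreted luciferase (QUANTI-LUC) in the supernatant, and viability by CellTiter-Glo luminescence.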

7S mitochondria DNA = assay: Mitochondria DNA assay with PC3 cells; conditions: Homo sapiens, PC-3, 120 h, 5 days, 7S mitochondria DNA level by qPCR relative to 18S or GAPDH
Procedure: Exemplary compounds were tested for their effect on levels of 7S mitochondria DNA, and the DNA of housekeeping genes 18S and GAPDH. Reduction of 7S mitochondria DNA indicates off-target inhibition of mitochondrial DNA synthesis, which leads to mitochondrial toxicity. Assay procedures and results are described below.
PC3 cells were purchased from ATCC and cultured in F-12 Kaighn's modified medium (Hyclone), 10% heat-inactivated fetal bovine serum (Gibco), 1% Penicillin-Streptomycin (Invitrogen). PC3 cells were treated with a dose titration of a test compound on 6 well plates for 5 days at 37° C., 5% CO2 in a humidified incubator.
Cells were harvested and mitochondria DNA extraction was performed using DNeasy Blood & Tissue Kit (Qiagen) according to the manufacture's instruction.
Mitochondria 7S and housekeeping genes 18S and GAPDH DNA was quantified by multiplex qPCR with the PowerUp™ SYBR™ Green system (Applied Biosystems). Prepare reaction mix consisting of 5 μl of 2× PowerUp™ SYBR™ Green Master Mix, 1 μl of 5 μM Primers for 7S, 18S, or GAPDH, 4 μl of DNA template from DNA extraction above. The primer sequences are below:
qPCR was performed on QuantStudio™ 7 Flex RealTime qPCR system (Applied Biosystems) as set forth below: • a. 50° C. for 2 minutes, then • b. 95° C. for 2 minutes, then • c. 95° C. for 15 seconds, then • d. 60° C. for 60 seconds, • where then steps (c) and (d) were repeated 60 times.
Threshold was calculated by QuantStudio™ 7 Flex Software (ThermoFisher Scientific) using the default settings. Ct values were used to evaluate the relative mitochondria DNA (mtDNA) level using the following formula: ΔCt=Ct (7S target gene)−Ct (18S) or ΔCt=Ct (7S target gene)−Ct (GAPDH). Relative mtDNA level=2^−Δct. Expression fold over DMSO control=2^−Δct (compound treated group)/2^−Δct (DMSO group)
In the table “A” represents values≤0.1 μM; “B” represents values from >0.1 μM to ≤1.0 μM; “C” represents values from >1.0 μM to ≤10.0 μM; “D” represents values from >10.0 μM to ≤100.0 μM; and “E” represents values>100.0 μM.

SMILES: Nc1ccn([C@H]2C[C@H](O)[C@](CO)(C(F)(F)F)O2)c(=O)n1 [Compound 21, 4-amino-1-((2R,4S,5R)-4-hydroxy-5-(hydroxymethyl)-5-(trifluoromethyl)tetrahydrofuran-2-yl)pyrimidin-2(1H)-one]
- IC50 [1]: > 100 µM
- IC50 (PC3 cells): > 100 µM
- IC50 [2]: > 100 µM
- IC50 [3]: > 10 µM

SMILES: CC(C)C(=O)OC[C@@]1(CCl)O[C@@H](n2ccc(N)nc2=O)[C@H](F)[C@@H]1OC(=O)C(C)C [Compound 24, (2R,3R,4R,5R)-5-(4-amino-2-oxopyrimidin-1(2H)-yl)-2-(chloromethyl)-4-fluoro-2-((isobutyryloxy)methyl) tetrahydrofuran-3-yl isobutyrate]
- IC50 (THP1-Dual KO-TREX1 cells): > 1 µM
- IC50 [1]: > 100 µM
- IC50 (PC3 cells): > 100 µM
- IC50 (7S mitochondria DNA): > 100 µM
- IC50 [2]: > 100 µM

SMILES: Nc1ccn([C@@H]2O[C@@](CO)(CCl)[C@@H](O)[C@H]2F)c(=O)n1 [Compound 31, 4-amino-1-((2R,3R,4R,5R)-5-(chloromethyl)-3-fluoro-4-hydroxy-5-(hydroxymethyl)tetrahydrofuran-2-yl)pyrimidin-2(1H)-one]
- IC50 (THP1-Dual KO-TREX1 cells): > 1 µM
- IC50 [1]: 10 to 50 µM
- IC50 (PC3 cells): 10 to 50 µM
- IC50 (7S mitochondria DNA): 0.1 to 1 µM
- IC50 [2]: 10 to 50 µM

SMILES: Nc1nc(=O)n([C@@H]2O[C@@](CO)(CCl)[C@@H](O)[C@@H]2O)cc1F [Compound 73, 4-amino-1-((2R,3S,4S,5R)-5-(chloromethyl)-3,4-dihydroxy-5-(hydroxymethyl)tetrahydrofuran-2-yl)-5-fluoropyrimidin-2(1H)-one]
- IC50 (THP1-Dual KO-TREX1 cells): > 1 µM
- IC50 [1]: > 100 µM
- IC50 (PC3 cells): > 100 µM
- IC50 (7S mitochondria DNA): > 100 µM
- IC50 [2]: > 100 µM

SMILES: CC[C@]1(CO)O[C@@H](n2cc(F)c(N)nc2=O)[C@@H](F)[C@@H]1O [Compound 77, 4-amino-1-[(2R,3S,4R,5R)-5-ethyl-3-fluoro-4-hydroxy-5-(hydroxymethyl)oxolan-2-yl]-5-fluoropyrimidin-2-one]
- IC50 (THP1-Dual KO-TREX1 cells): > 1 µM
- IC50 [1]: > 100 µM
- IC50 (PC3 cells): > 100 µM
- IC50 (7S mitochondria DNA): > 100 µM
- IC50 [2]: > 100 µM

SMILES: Nc1nc(=O)n([C@@H]2O[C@@](CO)(CBr)[C@@H](O)[C@@H]2F)cc1F [Compound 86, 4-amino-1-[(2R,3S,4R,5R)-5-(bromomethyl)-3-fluoro-4-hydroxy-5-(hydroxymethyl)oxolan-2-yl]-5-fluoropyrimidin-2-one]
- IC50 (THP1-Dual KO-TREX1 cells): > 1 µM
- IC50 [1]: > 100 µM
- IC50 (PC3 cells): > 100 µM
- IC50 (7S mitochondria DNA): > 100 µM
- IC50 [2]: > 100 µM

SMILES: C#C[C@]1(CO)O[C@@H](n2cc(F)c(N)nc2=O)[C@@H](O)[C@@H]1O [Compound 116, 4-amino-1-((2R,3S,4S,5R)-5-ethynyl-3,4-dihydroxy-5-(hydroxymethyl)tetrahydrofuran-2-yl)-5-fluoropyrimidin-2(1H)-one]
- IC50 (THP1-Dual KO-TREX1 cells): > 1 µM
- IC50 [1]: > 100 µM
- IC50 (PC3 cells): > 100 µM
- IC50 (7S mitochondria DNA): > 100 µM
- IC50 [2]: > 100 µM

SMILES: [N-]=[N+]=N[C@]1(CO)O[C@@H](c2cc(I)c3c(N)ncnn23)C[C@@H]1O [Compound 161, (2R,3S,5R)-5-(4-amino-5-iodopyrrolo[2,1-f][1,2,4]triazin-7-yl)-2-azido-2-(hydroxymethyl)tetrahydrofuran-3-ol]
- IC50 (THP1-Dual KO-TREX1 cells): 0.05 to 0.1 µM
- IC50 [1]: 1 to 10 µM
- IC50 (PC3 cells): 1 to 10 µM
- IC50 (7S mitochondria DNA): > 100 µM
- IC50 [2]: 1 to 10 µM

SMILES: CC(C)C(=O)OC[C@@]1(CCl)O[C@@H](n2cc(F)c(N)nc2=O)[C@@H](F)[C@@H]1OC(=O)C(C)C [Compound 173, (2R,3R,4S,5R)-5-(4-amino-5-fluoro-2-oxopyrimidin-1(2H)-yl)-2-(chloromethyl)-4-fluoro-2-((isobutyryloxy)methyl) tetrahydrofuran-3-yl isobutyrate]
- IC50 (THP1-Dual KO-TREX1 cells): > 1 µM
- IC50 [1]: 50 to 100 µM
- IC50 (PC3 cells): > 100 µM
- IC50 (7S mitochondria DNA): > 100 µM
- IC50 [2]: > 100 µM
